Test [1] concerns the target T1, isolated recombinant JAK2 kinase domain (Homo sapiens, UniProt O60674).
T1 construct: The activity of the isolated recombinant JAK1 and JAK2 kinase domain was measured
The experiment in a line: JAK2 enzyme assay (Caliper LabChip, Ki). Type of test: biochemical. Conditions: 25 μM ATP. The gist of the method: (§1)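 Ki values fitted with Morrison tight-binding equation adjusted for ATP-competitive inhibition, using product-to-total peptide ratio read by Caliper LabChip. Reactions: isolated JAK1 or JAK2 kinase domain with N-terminal 5-carboxyfluorescein JAK3-derived peptide, 22° C for 30 min, quenched by EDTA.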

The target of test [2] is T2, isolated recombinant JAK1 kinase domain (Homo sapiens, UniProt P23458).
T2 construct: The activity of the isolated recombinant JAK1 and JAK2 kinase domain was measured
T2 sequence (P23458 875-1153 limits assumed): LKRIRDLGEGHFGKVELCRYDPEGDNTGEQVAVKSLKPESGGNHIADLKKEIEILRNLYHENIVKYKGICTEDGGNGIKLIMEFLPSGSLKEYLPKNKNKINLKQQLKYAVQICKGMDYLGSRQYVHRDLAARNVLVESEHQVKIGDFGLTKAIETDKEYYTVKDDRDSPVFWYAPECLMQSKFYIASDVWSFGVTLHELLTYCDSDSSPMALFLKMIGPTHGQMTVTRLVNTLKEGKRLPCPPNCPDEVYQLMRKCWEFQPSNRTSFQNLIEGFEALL
Kind of test: JAK1 enzyme assay (Caliper LabChip, Ki). Type of test: biochemical. Conditions: recombinant JAK1 kinase domain, 25 μM ATP. Put shortly: as §1

Test [3] has as its system JAK1-dependent STAT6 phosphorylation downstream of IL-13 stimulation in BEAS-2B human bronchial epithelial cells. The experiment in a line: JAK1 pathway assay in BEAS-2B cells (IL-13 stimulated STAT6 phosphorylation, MSD). Conditions: read-out: P-STAT6 BEAS2B + IL13 IC50. Type of test: cell-based. The gist of the method: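 BEAS-2B human bronchial epithelial cells, plated the day before in complete growth medium, were preincubated with compound for 1 hr at 37° C (0.2% DMSO final), then stimulated with IL-13 at its EC90 for 15 min. STAT6 phosphorylation in lysates was read by MSD; EC50 was taken as 50% inhibition versus DMSO control.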

Consider 18 compounds from patent publication US20180265515A1 (Genentech, Inc., priority 2015, published 2018).

T1 sequence (O60674 849-1124 limits assumed): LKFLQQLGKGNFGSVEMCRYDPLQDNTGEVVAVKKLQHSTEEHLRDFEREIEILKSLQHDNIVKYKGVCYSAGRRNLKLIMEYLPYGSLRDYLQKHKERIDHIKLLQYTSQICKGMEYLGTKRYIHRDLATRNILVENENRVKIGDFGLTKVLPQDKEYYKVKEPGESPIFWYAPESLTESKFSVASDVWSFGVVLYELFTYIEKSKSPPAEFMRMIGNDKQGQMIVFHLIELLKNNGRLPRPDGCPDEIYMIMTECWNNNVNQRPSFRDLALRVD

`CC(C)Sc1ccc(OC(F)F)c(-c2nn(CC(=O)N3CCC(NCC(C)(C)C#N)CC3)cc2NC(=O)c2cnn3cccnc23)c1` [Example 120, N-[1-[2-[4-[(2-cyano-2-methyl-propyl)amino]-1-piperidyl]-2-oxo-ethyl]-3-[2-(difluoromethoxy)-5-isopropylsulfanyl-phenyl]pyrazol-4-yl]pyrazolo[1,5-a]pyrimidine-3-carboxamide]: the Ki in test [1] was determined as 1.2 nM; in test [2], 0.4 nM. In addition, in test [3], the 50% inhibitory concentration (IC50) was 27 nM.

Regarding `CCN1CCN(C(=O)Cn2cc(NC(=O)c3cnn4cccnc34)c(-c3cc(SC(C)C)ccc3OC(F)F)n2)CC1` [Example 121, N-[3-[2-(difluoromethoxy)-5-isopropylsulfanyl-phenyl]-1-[2-(4-ethylpiperazin-1-yl)-2-oxo-ethyl]pyrazol-4-yl]pyrazolo[1,5-a]pyrimidine-3-carboxamide], the inhibition constant Ki came to 1.3 nM in test [1] and 0.7 nM in test [2]. In addition, in test [3], the IC50 came to 31 nM.

In the case of `CC(C)Sc1ccc(OC(F)F)c(-c2nn(CC(=O)N3CCN(CCOCCO)CC3)cc2NC(=O)c2cnn3cccnc23)c1` [Example 122, N-[3-[2-(difluoromethoxy)-5-isopropylsulfanyl-phenyl]-1-[2-[4-[2-(2-hydroxyethoxy)ethyl]piperazin-1-yl]-2-oxo-ethyl]pyrazol-4-yl]pyrazolo[1,5-a]pyrimidine-3-carboxamide], the Ki in test [1] came to 0.85 nM; in test [2] it was 0.41 nM. In addition, the IC50 in test [3] worked out at 42 nM.

In the case of `CC(C)Sc1ccc(OC(F)F)c(-c2nn(CC(=O)N3CCC(N(C)CC4OCCO4)CC3)cc2NC(=O)c2cnn3cccnc23)c1` [Example 123, N-[3-[2-(difluoromethoxy)-5-isopropylsulfanyl-phenyl]-1-[2-[4-[1,3-dioxolan-2-ylmethyl(methyl)amino]-1-piperidyl]-2-oxo-ethyl]pyrazol-4-yl]pyrazolo[1,5-a]pyrimidine-3-carboxamide], the Ki in test [1] was 2 nM; in test [2] it was 0.79 nM. In addition, in test [3], the IC50 was found to be 38 nM.

`CC(C)Sc1ccc(OC(F)F)c(-c2nn(CC(=O)N3CC4CCCNC4C3)cc2NC(=O)c2cnn3cccnc23)c1` (stereo not drawn) [Example 124, N-[1-[2-(1,2,3,4,4a,5,7,7a-octahydropyrrolo[3,4-b]pyridin-6-yl)-2-oxo-ethyl]-3-[2-(difluoromethoxy)-5-isopropylsulfanyl-phenyl]pyrazol-4-yl]pyrazolo[1,5-a]pyrimidine-3-carboxamide]: the values for the Ki in test [1] and in test [2] were 1.1 nM and 0.92 nM, respectively. Also, the IC50 in test [3] came out at 59 nM.

In the case of `CC(C)Sc1ccc(OC(F)F)c(-c2nn(CC(=O)N3CCN(C4CCOCC4)CC3)cc2NC(=O)c2cnn3cccnc23)c1` [Example 125, N-[3-[2-(difluoromethoxy)-5-isopropylsulfanyl-phenyl]-1-[2-oxo-2-(4-tetrahydropyran-4-ylpiperazin-1-yl)ethyl]pyrazol-4-yl]pyrazolo[1,5-a]pyrimidine-3-carboxamide], the inhibition constant Ki in test [1] was 0.94 nM; in test [2], 0.47 nM. Further, in test [3], the IC50 was determined as 17 nM.

As for `CC(C)Sc1ccc(OC(F)F)c(-c2nn(CC(=O)N3CCN(CCCO)CC3)cc2NC(=O)c2cnn3cccnc23)c1` [Example 126, N-[3-[2-(difluoromethoxy)-5-isopropylsulfanyl-phenyl]-1-[2-[4-(3-hydroxypropyl)piperazin-1-yl]-2-oxo-ethyl]pyrazol-4-yl]pyrazolo[1,5-a]pyrimidine-3-carboxamide], the figures for the Ki in test [1] and in test [2] were 0.84 nM and 0.37 nM, respectively. Besides, the 50% inhibitory concentration (IC50) in test [3] is 43 nM.

For `CC(C)Sc1ccc(OC(F)F)c(-c2nn(CC(=O)N3CCN(CC4(C)COC4)CC3)cc2NC(=O)c2cnn3cccnc23)c1` [Example 127, N-[3-[2-(difluoromethoxy)-5-isopropylsulfanyl-phenyl]-1-[2-[4-[(3-methyloxetan-3-yl)methyl]piperazin-1-yl]-2-oxo-ethyl]pyrazol-4-yl]pyrazolo[1,5-a]pyrimidine-3-carboxamide], the results for the inhibitory constant (Ki) in test [1] and in test [2] were 0.97 nM and 0.48 nM, respectively. Moreover, in test [3], the IC50 came out at 35 nM.

In the case of `CC(C)Sc1ccc(OC(F)F)c(-c2nn(CC(=O)N3CCN(C4CCOC4)CC3)cc2NC(=O)c2cnn3cccnc23)c1` (stereo not drawn) [Example 128, N-[3-[2-(difluoromethoxy)-5-isopropylsulfanyl-phenyl]-1-[2-oxo-2-(4-tetrahydrofuran-3-ylpiperazin-1-yl)ethyl]pyrazol-4-yl]pyrazolo[1,5-a]pyrimidine-3-carboxamide], the inhibition constant Ki amounted to 1.2 nM in test [1] and 0.58 nM in test [2]. For the same compound, the IC50 in test [3] was found to be 47 nM.

Turning to `CC(C)Sc1ccc(OC(F)F)c(-c2nn(CC(=O)N3CCC(N4CC(C#N)C4)CC3)cc2NC(=O)c2cnn3cccnc23)c1` [Example 129, N-(1-[2-[4-(3-cyanoazetidin-1-yl)piperidin-1-yl]-2-oxoethyl]-3-[2-(difluoromethoxy)-5-(propan-2-ylsulfanyl)phenyl]-1H-pyrazol-4-yl)pyrazolo[1,5-a]pyrimidine-3-carboxamide], the figures for the Ki in test [1] and in test [2] were 0.99 nM and 0.42 nM, respectively. The half-inhibitory concentration (IC50) in test [3] stood at 26 nM.

In the case of `CC(C)Sc1ccc(OC(F)F)c(-c2nn(CC(=O)N3CCC(N4CC5CC(C4)O5)CC3)cc2NC(=O)c2cnn3cccnc23)c1` [Example 130, N-[3-[2-(difluoromethoxy)-5-isopropylsulfanyl-phenyl]-1-[2-[4-(6-oxa-3-azabicyclo[3.1.1]heptan-3-yl)-1-piperidyl]-2-oxo-ethyl]pyrazol-4-yl]pyrazolo[1,5-a]pyrimidine-3-carboxamide], the results for the Ki in test [1] and in test [2] were 1 nM and 0.57 nM, respectively. Besides, the concentration for half-maximal inhibition (IC50) in test [3] stood at 19 nM.

Turning to `CC(C)Sc1ccc(OC(F)F)c(-c2nn(CC(=O)N3CCN(CCO)CC3)cc2NC(=O)c2cnn3cccnc23)c1` [Example 131, N-[3-[2-(difluoromethoxy)-5-isopropylsulfanyl-phenyl]-1-[2-[4-(2-hydroxyethyl)piperazin-1-yl]-2-oxo-ethyl]pyrazol-4-yl]pyrazolo[1,5-a]pyrimidine-3-carboxamide], the Ki in test [1] came out at 0.8 nM; in test [2] it was 0.41 nM. Further, the IC50 in test [3] was 30 nM.

For the compound `CC(C)Sc1ccc(OC(F)F)c(-c2nn(CC(=O)N3CCC(C)(N4CCOCC4)CC3)cc2NC(=O)c2cnn3cccnc23)c1` [Example 132, N-[3-[2-(difluoromethoxy)-5-isopropylsulfanyl-phenyl]-1-[2-(4-methyl-4-morpholino-1-piperidyl)-2-oxo-ethyl]pyrazol-4-yl]pyrazolo[1,5-a]pyrimidine-3-carboxamide], the results for the Ki in test [1] and in test [2] were 1.2 nM and 0.67 nM, respectively. In test [3], the IC50 worked out at 36 nM.

Regarding `CC(C)Sc1ccc(OC(F)F)c(-c2nn(CC(=O)N3CCN(CC4CCOCC4)CC3)cc2NC(=O)c2cnn3cccnc23)c1` [Example 135, N-[3-[2-(difluoromethoxy)-5-isopropylsulfanyl-phenyl]-1-[2-oxo-2-[4-(tetrahydropyran-4-ylmethyl)piperazin-1-yl]ethyl]pyrazol-4-yl]pyrazolo[1,5-a]pyrimidine-3-carboxamide], the inhibition constant (Ki) in test [1] stood at 0.87 nM; in test [2], 0.43 nM. Moreover, the IC50 in test [3] was found to be 24 nM.

On to `CC(C)Sc1ccc(OC(F)F)c(-c2nn(CC(=O)N3CCC(CN4CCOCC4)CC3)cc2NC(=O)c2cnn3cccnc23)c1` [Example 136, N-[3-[2-(difluoromethoxy)-5-isopropylsulfanyl-phenyl]-1-[2-[4-(morpholinomethyl)-1-piperidyl]-2-oxo-ethyl]pyrazol-4-yl]pyrazolo[1,5-a]pyrimidine-3-carboxamide], for which the results for the inhibition constant (Ki) in test [1] and in test [2] were 1.2 nM and 0.49 nM, respectively. Besides, the concentration for half-maximal inhibition (IC50) in test [3] turned out to be 20 nM.

As to `CC(C)Sc1ccc(OC(F)F)c(-c2nn(CC(=O)N3CCC(C(=O)N4CCN(C)CC4)CC3)cc2NC(=O)c2cnn3cccnc23)c1` [Example 137, N-[3-[2-(difluoromethoxy)-5-isopropylsulfanyl-phenyl]-1-[2-[4-(4-methylpiperazine-1-carbonyl)-1-piperidyl]-2-oxo-ethyl]pyrazol-4-yl]pyrazolo[1,5-a]pyrimidine-3-carboxamide], the inhibition constant (Ki) was 1.5 nM in test [1] and 0.5 nM in test [2]. Further, in test [3], the half-inhibitory concentration (IC50) stood at 66 nM.

Consider `CC(C)Sc1ccc(OC(F)F)c(-c2nn(CC(=O)N3CCC(N4CC[S+]([O-])CC4)CC3)cc2NC(=O)c2cnn3cccnc23)c1` [Example 138, N-[3-[2-(difluoromethoxy)-5-isopropylsulfanyl-phenyl]-1-[2-oxo-2-[4-(1-oxo-1,4-thiazinan-4-yl)-1-piperidyl]ethyl]pyrazol-4-yl]pyrazolo[1,5-a]pyrimidine-3-carboxamide], for which the figures for the inhibition constant Ki in test [1] and in test [2] were 0.17 nM and 0.22 nM, respectively. The IC50 in test [3] worked out at 250 nM.

Turning to `CC(C)Sc1ccc(OC(F)F)c(-c2nn(CC(=O)N3CCC(N4CCn5cncc5C4)CC3)cc2NC(=O)c2cnn3cccnc23)c1` [Example 139, N-[3-[2-(difluoromethoxy)-5-isopropylsulfanyl-phenyl]-1-[2-[4-(6,8-dihydro-5H-imidazo[1,5-a]pyrazin-7-yl)-1-piperidyl]-2-oxo-ethyl]pyrazol-4-yl]pyrazolo[1,5-a]pyrimidine-3-carboxamide], the Ki was 0.84 nM in test [1] and 0.51 nM in test [2]. For the same compound, in test [3], the IC50 came out at 140 nM.
